# “And” between values parts separate entries of the source, which are not always exact repeats. Identical values can stand only once.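 Briefly, cells in 96-well plates were exposed to five compound concentrations for 48 h, and endpoints were estimated by linear interpolation. Here, GI50 denotes the concentration required for 50% inhibition of growth. TGI is the concentration that stops growth completely.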
# Tests used:
# Experiment in all cases: growth of human tumour cells (NCI), 48 h
# NCI-H226 lung = test system: NCI-H226 lung
# EKVX NSCLC = test system: EKVX NSCLC
# HCC-2998 colon = test system: HCC-2998 colon
# COLO 205 colon = test system: COLO 205 colon
# HOP-62 NSCLC = test system: HOP-62 NSCLC
# M14 melanoma = test system: M14 melanoma
# 786-0 renal = test system: 786-0 renal
# DU-145 prostate = test system: DU-145 prostate
# RXF 393 renal = test system: RXF 393 renal
# SNB-75 CNS = test system: SNB-75 CNS
# OVCAR-8 ovarian = test system: OVCAR-8 ovarian
# SK-MEL-28 melanoma = test system: SK-MEL-28 melanoma
# ACHN renal = test system: ACHN renal
# SK-MEL-5 melanoma = test system: SK-MEL-5 melanoma
# CAKI-1 renal = test system: CAKI-1 renal
# MOLT-4 leukemia = test system: MOLT-4 leukemia
# NCI/ADR-RES ovarian = test system: NCI/ADR-RES ovarian
# PC-3 prostate = test system: PC-3 prostate
# MDA-MB-435 = test system: MDA-MB-435
# UACC-62 melanoma = test system: UACC-62 melanoma
# SW-620 colon = test system: SW-620 colon
# MCF7 breast = test system: MCF7 breast
# TK-10 renal = test system: TK-10 renal
# CCRF-CEM leukemia = test system: CCRF-CEM leukemia
# UACC-257 melanoma = test system: UACC-257 melanoma
# KM12 colon = test system: KM12 colon
# U251 CNS = test system: U251 CNS
# UO-31 renal = test system: UO-31 renal
# NCI-H522 lung = test system: NCI-H522 lung
# LOX IMVI melanoma = test system: LOX IMVI melanoma
# SF-295 CNS = test system: SF-295 CNS
# BT-549 breast = test system: BT-549 breast
# SR leukemia = test system: SR leukemia
# SK-MEL-2 melanoma = test system: SK-MEL-2 melanoma
# IGROV1 ovarian = test system: IGROV1 ovarian
# A549 NSCLC = test system: A549 NSCLC
# OVCAR-4 ovarian = test system: OVCAR-4 ovarian
# T-47D breast = test system: T-47D breast
# HCT-15 colon = test system: HCT-15 colon
# SNB-19 CNS = test system: SNB-19 CNS
# HT29 colon = test system: HT29 colon
# OVCAR-5 ovarian = test system: OVCAR-5 ovarian
# MDA-MB-231 breast = test system: MDA-MB-231 breast
# NCI-H23 lung = test system: NCI-H23 lung
# SF-268 CNS = test system: SF-268 CNS
# HCT-116 colon = test system: HCT-116 colon
# MDA-N = test system: MDA-N
# SN12C renal = test system: SN12C renal
# OVCAR-3 ovarian = test system: OVCAR-3 ovarian
# SK-OV-3 ovarian = test system: SK-OV-3 ovarian
# K-562 leukemia = test system: K-562 leukemia
# NCI-H460 lung = test system: NCI-H460 lung
# RPMI-8226 leukemia = test system: RPMI-8226 leukemia
# A498 renal = test system: A498 renal
# HS 578T breast = test system: HS 578T breast
# MALME-3M melanoma = test system: MALME-3M melanoma
# HOP-92 NSCLC = test system: HOP-92 NSCLC
# HL-60(TB) leukemia = test system: HL-60(TB) leukemia
# SF-539 CNS = test system: SF-539 CNS
smiles,measurement,setting,value
CC1(C)O[C@@H](CP(c2ccc3ccccc3c2)c2ccc3ccccc3c2)[C@H](CP(c2ccc3ccccc3c2)c2ccc3ccccc3c2)O1,TGI,NCI-H226 lung,> 100 µM
same,TGI,EKVX NSCLC,> 100 µM
same,TGI,HCC-2998 colon,> 100 µM
same,TGI,COLO 205 colon,> 100 µM
same,TGI,HOP-62 NSCLC,> 100 µM
same,TGI,M14 melanoma,> 100 µM
same,TGI,786-0 renal,> 100 µM
same,TGI,DU-145 prostate,> 100 µM
same,TGI,RXF 393 renal,> 100 µM
same,TGI,SNB-75 CNS,> 100 µM
same,TGI,OVCAR-8 ovarian,> 100 µM
same,TGI,SK-MEL-28 melanoma,> 100 µM
same,TGI,ACHN renal,> 100 µM
same,TGI,SK-MEL-5 melanoma,> 100 µM
same,TGI,CAKI-1 renal,> 100 µM
same,TGI,MOLT-4 leukemia,> 100 µM
same,TGI,NCI/ADR-RES ovarian,> 100 µM
same,TGI,PC-3 prostate,> 100 µM
same,TGI,MDA-MB-435,> 100 µM
same,TGI,UACC-62 melanoma,> 100 µM
same,TGI,SW-620 colon,> 100 µM
same,TGI,MCF7 breast,> 100 µM
same,TGI,TK-10 renal,> 100 µM
same,TGI,CCRF-CEM leukemia,> 100 µM
same,TGI,UACC-257 melanoma,> 100 µM
same,TGI,KM12 colon,> 100 µM
same,TGI,U251 CNS,> 100 µM
same,TGI,UO-31 renal,> 100 µM
same,TGI,NCI-H522 lung,> 100 µM
same,TGI,LOX IMVI melanoma,> 100 µM
same,TGI,SF-295 CNS,> 100 µM
same,TGI,BT-549 breast,> 100 µM
same,TGI,SR leukemia,> 100 µM
same,TGI,SK-MEL-2 melanoma,> 100 µM
same,TGI,IGROV1 ovarian,> 100 µM
same,TGI,A549 NSCLC,> 100 µM
same,TGI,OVCAR-4 ovarian,> 100 µM
same,TGI,T-47D breast,> 100 µM
same,TGI,HCT-15 colon,> 100 µM
same,TGI,SNB-19 CNS,> 100 µM
same,TGI,HT29 colon,> 100 µM
same,TGI,OVCAR-5 ovarian,> 100 µM
same,TGI,MDA-MB-231 breast,> 100 µM
same,TGI,NCI-H23 lung,> 100 µM
same,TGI,SF-268 CNS,> 100 µM
same,TGI,HCT-116 colon,> 100 µM
same,TGI,MDA-N,> 100 µM
same,TGI,SN12C renal,> 100 µM
same,TGI,OVCAR-3 ovarian,> 100 µM
same,TGI,SK-OV-3 ovarian,> 100 µM
same,TGI,K-562 leukemia,> 100 µM
same,TGI,NCI-H460 lung,> 100 µM
CCC(=O)OCN1C(=O)C=CC1=O,GI50,NCI-H226 lung,15.2 µM
same,TGI,NCI-H226 lung,30.1 µM and > 63.3 µM
same,GI50,EKVX NSCLC,16.8 µM
same,TGI,EKVX NSCLC,32.4 µM and 42.5 µM
same,TGI,HCC-2998 colon,34.1 µM and 33.6 µM
same,GI50,COLO 205 colon,1.84 µM
same,TGI,COLO 205 colon,3.56 µM and 11.3 µM
same,TGI,HOP-62 NSCLC,37.6 µM and 34.9 µM
same,TGI,M14 melanoma,37.5 µM and 32.3 µM
same,GI50,786-0 renal,21.7 µM
same,TGI,786-0 renal,41.4 µM and 11.3 µM
same,GI50,DU-145 prostate,20 µM
same,TGI,DU-145 prostate,34.2 µM and 30.2 µM
same,TGI,RXF 393 renal,30.6 µM and 30.5 µM
same,TGI,OVCAR-8 ovarian,35 µM and 37 µM
same,TGI,SK-MEL-28 melanoma,33.3 µM and 33.4 µM
same,GI50,ACHN renal,15.1 µM
same,TGI,ACHN renal,28.5 µM and 19.7 µM
same,GI50,SK-MEL-5 melanoma,18.9 µM
same,TGI,SK-MEL-5 melanoma,42.5 µM and > 58.1 µM
same,GI50,CAKI-1 renal,10.5 µM
same,TGI,CAKI-1 renal,25.3 µM and 9.35 µM
same,GI50,MOLT-4 leukemia,3.32 µM
same,TGI,NCI/ADR-RES ovarian,56.2 µM and 63.5 µM
same,TGI,PC-3 prostate,33.1 µM and 30.9 µM
same,GI50,MDA-MB-435,17.4 µM
same,TGI,MDA-MB-435,32.8 µM and 28.5 µM
same,TGI,UACC-62 melanoma,31.8 µM and 30.7 µM
same,TGI,SW-620 colon,3.58 µM and 4.43 µM
same,TGI,MCF7 breast,40.9 µM and 39.7 µM
same,GI50,TK-10 renal,15.6 µM
same,TGI,TK-10 renal,29.3 µM and 18.4 µM
same,TGI,CCRF-CEM leukemia,1.84 µM
same,GI50,UACC-257 melanoma,15.7 µM
same,TGI,UACC-257 melanoma,29.4 µM and 22.2 µM
same,GI50,KM12 colon,19.3 µM
same,TGI,KM12 colon,35.1 µM and 30.8 µM
same,GI50,RPMI-8226 leukemia,19.3 µM and 4.42 µM
same,TGI,RPMI-8226 leukemia,56.2 µM and 13.5 µM
same,TGI,U251 CNS,31.1 µM and 31.6 µM
same,GI50,UO-31 renal,17.5 µM
same,TGI,UO-31 renal,31.7 µM and 20.7 µM
same,GI50,NCI-H522 lung,2.27 µM
same,TGI,NCI-H522 lung,4.64 µM and 4.58 µM
same,TGI,LOX IMVI melanoma,34.3 µM and 35.1 µM
same,GI50,SF-295 CNS,18.4 µM
same,TGI,SF-295 CNS,35.2 µM and > 66.6 µM
same,TGI,BT-549 breast,33.3 µM and 34.4 µM
same,GI50,A498 renal,> 100 µM
same,TGI,A498 renal,> 100 µM
same,GI50,SR leukemia,3.27 µM
same,TGI,SR leukemia,> 100 µM
same,TGI,SK-MEL-2 melanoma,29.3 µM
same,GI50,IGROV1 ovarian,21.4 µM
same,TGI,IGROV1 ovarian,40.5 µM and 34.2 µM
same,TGI,A549 NSCLC,39.9 µM and 34.9 µM
same,GI50,OVCAR-4 ovarian,21.2 µM
same,TGI,OVCAR-4 ovarian,39.5 µM and 34.5 µM
same,GI50,HCT-15 colon,20.1 µM
same,TGI,HCT-15 colon,39.7 µM and 56.8 µM
same,GI50,SNB-19 CNS,> 100 µM
same,TGI,SNB-19 CNS,> 100 µM and 32.5 µM
same,GI50,HS 578T breast,27.8 µM
same,TGI,HS 578T breast,73.3 µM and 36.5 µM
same,TGI,HT29 colon,40.8 µM and 35.9 µM
same,TGI,OVCAR-5 ovarian,32.9 µM and 33.1 µM
same,TGI,MDA-MB-231 breast,33.2 µM and 33.1 µM
same,GI50,MALME-3M melanoma,16 µM
same,TGI,MALME-3M melanoma,31.5 µM and 27.6 µM
same,GI50,NCI-H23 lung,20.1 µM
same,TGI,NCI-H23 lung,39.6 µM and 34.7 µM
same,GI50,HOP-92 NSCLC,2.65 µM
same,TGI,HOP-92 NSCLC,16.7 µM and 31.6 µM
same,GI50,SF-268 CNS,19.1 µM
same,TGI,SF-268 CNS,36.9 µM and 41.3 µM
same,GI50,HCT-116 colon,11.8 µM
same,TGI,HCT-116 colon,25.8 µM and 29.9 µM
same,TGI,MDA-N,31.4 µM
same,GI50,SN12C renal,16.2 µM
same,TGI,SN12C renal,30.5 µM and 35.6 µM
same,GI50,OVCAR-3 ovarian,12.9 µM
same,TGI,OVCAR-3 ovarian,25.7 µM and 18.6 µM
same,GI50,SK-OV-3 ovarian,> 100 µM
same,TGI,SK-OV-3 ovarian,> 100 µM
same,GI50,K-562 leukemia,4.19 µM
same,GI50,NCI-H460 lung,21.3 µM
same,TGI,NCI-H460 lung,44.2 µM and 33.7 µM
same,GI50,HL-60(TB) leukemia,17.3 µM
same,TGI,HL-60(TB) leukemia,70.4 µM and 8.36 µM
same,GI50,SF-539 CNS,20.5 µM
same,TGI,SF-539 CNS,36.8 µM and 33.8 µM

# From PubChem BioAssay (NCI)
